Measurements as given in patent publication US10894807B2 (Siemens Medical Solutions USA, Inc., priority 2011, dated 2021).
Where a SMILES comes first, the peptide text is derived from it. [ ]: non-standard residue; d: D form. The star is where a group is joined. Boc = CC(C)(C)OC(=O)*; Nlys = NCCCCNCC(=O)O

Molecular target: human PSMA (Homo sapiens (Human), UniProt Q04609)
Assay: Enzymatic assay for in vitro evaluation of PSMA inhibitors (fluorescent assay of PSMA activity, NAAG substrate, OPA detection of glutamate)
Assay type: biochemical
Settings: for PSMA Blkg % (10 μM): compound at 10 μM
Method: Enzymatic Assay for In Vitro Evaluation of PSMA Inhibitors
The inhibitory activity of all compounds was determined using a fluorescent assay of human PSMA activity. The enzyme used in the assay was purchased from R&D Systems and stored at −80° C. The PSMA activity was assayed in a two-step process. In the first step, aliquots of enzyme (0.2 μg/mL) were incubated for 1 h at 37° C. in 50 mM HEPES, 0.1 M NaCl, pH 7.5, in the presence of 20 μM NAAG and the given inhibitor, in a volume of 250 μL, to allow for the accumulation of glutamate produced in the PSMA reaction. In the second step, the amount of accumulated glutamate was measured using the OPA reaction, and the fluorescence was read with a SpectraMax fluorescent plate reader using excitation at 330 nm and emission at 450 nm. The final Ki values for each inhibitor were calculated from the respective IC50 values using the Cheng and Prusoff equation.

human PSMA, sequence (Q04609 whole entry): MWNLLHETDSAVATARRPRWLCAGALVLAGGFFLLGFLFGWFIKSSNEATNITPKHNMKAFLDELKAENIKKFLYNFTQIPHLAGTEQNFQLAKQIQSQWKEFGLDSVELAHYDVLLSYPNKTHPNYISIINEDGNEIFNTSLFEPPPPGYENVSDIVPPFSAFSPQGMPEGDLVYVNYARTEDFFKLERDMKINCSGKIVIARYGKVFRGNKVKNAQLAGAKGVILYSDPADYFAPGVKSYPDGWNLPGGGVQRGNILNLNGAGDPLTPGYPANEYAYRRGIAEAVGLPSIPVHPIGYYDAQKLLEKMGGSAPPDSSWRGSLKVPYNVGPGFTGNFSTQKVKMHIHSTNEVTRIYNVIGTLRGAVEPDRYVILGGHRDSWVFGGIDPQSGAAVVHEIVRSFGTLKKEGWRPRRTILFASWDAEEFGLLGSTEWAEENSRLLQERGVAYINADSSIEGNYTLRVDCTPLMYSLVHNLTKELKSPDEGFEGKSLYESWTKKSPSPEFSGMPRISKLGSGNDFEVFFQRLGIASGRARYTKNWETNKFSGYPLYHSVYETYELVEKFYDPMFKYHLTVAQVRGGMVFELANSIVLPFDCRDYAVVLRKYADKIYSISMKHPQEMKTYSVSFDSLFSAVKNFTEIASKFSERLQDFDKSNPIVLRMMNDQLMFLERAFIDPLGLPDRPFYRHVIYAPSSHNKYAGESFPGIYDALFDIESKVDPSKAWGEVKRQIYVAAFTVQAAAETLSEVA

Row | SMILES | Ki [µM] | PSMA Blkg % (10 μM) [%]
1 | O=C(O)CC[C@H](NC(=O)N[C@@H](CCCCNC(=O)CCCn1cc(CCCF)nn1)C(=O)O)C(=O)O [P045, (S)-2-(3-((S)-1-Carboxy-5-(4-(4-(3-fluoropropyl)-1H-1,2,3-triazol-1-yl)-butanamido)pentyl)ureido)pentanedioic Acid] | 0.0109 | 95
2 | CN(C(=O)N[C@@H](CCC(=O)O)C(=O)O)[C@@H](CCCCNC(=O)CCCn1cc(CCCF)nn1)C(=O)O [P046, (S)-2-(3-((S)-1-Carboxy-5-(4-(4-(3-fluoropropyl)-1H-1,2,3-triazol-1-yl)-butanamido)pentyl)-3-methylureido)pentanedioic Acid] | 0.328 | 80
3 | CC(C)(C)OC(=O)NCCCCN(CC(=O)N[C@@H](CCC(=O)O)C(=O)O)C(N)=O [P047, (S)-2-(2-(1-(4-(tert-Butoxycarbonylamino)butyl)ureido)acetamido)pentanedioic Acid] | – | 0
4 | CC(C)(C)OC(=O)NCCCCN(CC(=O)N[C@@H](CCC(=O)O)C(=O)O)C(=O)NC(N)=O [P048, (S)-2-(2-(1-(4-(tert-Butoxycarbonylamino)butyl)-3-carbamoylureido)acetamido) pentanedioic Acid] | – | 0
5 | CC(C)(C)OC(=O)NCCCCN(CC(=O)O)CC(=O)N[C@@H](CCC(=O)O)C(=O)O [P049, (S)-2-(2-((4-(tert-Butoxycarbonylamino)butyl)(carboxymethyl)amino)acetamido) pentanedioic Acid] | – | 0
6 | CC(C)(C)OC(=O)NCCCCN1CC(=O)N([C@@H](CCC(=O)O)C(=O)O)C(=O)C1 [P050, (S)-2-(4-(4-(tert-Butoxycarbonylamino)butyl)-2,6-dioxopiperazin-1-yl)pentanedioic Acid] | – | 0
7 | CC(C)(C)OC(=O)NCCCCNCC(=O)N[C@@H](CCC(=O)O)C(=O)O [P051, (S)-2-(2-(4-(tert-Butoxycarbonylamino)butylamino)acetamido)pentanedioic Acid] (H-[Nlys](Boc)-Glu-OH) | – | 4
8 | CCS(=O)(=O)N(CCc1ccccc1)CC(=O)NC(CCC(=O)O)C(=O)O (centres unmarked) [P052, 2-(2-(N-Phenethylethylsulfonamido)acetamido)pentanedioic Acid] | – | 2
9 | CN(C(=O)N[C@@H](CCC(=O)O)C(=O)O)[C@@H](CCCCNC(=O)c1ccc(-n2cc(CCCF)nn2)cc1)C(=O)O [P053, (S)-2-(3-((S)-1-Carboxy-5-(4-(4-(3-fluoropropyl)-1H-1,2,3-triazol-1-yl)benzamido)pentyl)-3-methylureido)pentanedioic Acid] | 0.0313 | 94
10 | O=C(O)CC[C@H](NC(=O)N[C@@H](CCCCNC(=O)c1ccc(-n2cc(CCCF)nn2)cc1)C(=O)O)C(=O)O [P054] | 0.0016 | 100
11 | O=C(O)CC[C@@H](C(=O)O)N1C(=O)CC(=O)N([C@@H](CCCCNC(=O)OCc2ccccc2)C(=O)O)C1=O [P055, (S)-2-(3-((S)-5-(Benzyloxycarbonylamino)-1-carboxypentyl)-2,4,6-trioxotetrahydropyrimidin-1(2H)-yl)pentanedioic Acid] | 0.344 | 94
12 | O=C(O)CC[C@H](NC(=O)NNC(=O)OCc1ccccc1)C(=O)O [P056, (S)-2-(2-((Benzyloxy)carbonyl)hydrazinecarboxamido)pentanedioic Acid] | – | 0
13 | [N-]=[N+]=Nc1ccc(C(=O)NCCCC[C@@H](C(=O)O)N2C(=O)CC(=O)N([C@@H](CCC(=O)O)C(=O)O)C2=O)cc1 [P057, (S)-2-(3-((S)-5-(4-Azidobenzamido)-1-carboxypentyl)-2,4,6-trioxotetrahydropyrimidin-1(2H)-yl)pentanedioic Acid] | – | 32
14 | [N-]=[N+]=Nc1ccc(C(=O)NCCCC[C@H](NC(=O)N[C@@H](CCC(=O)O)C(=O)O)C(=O)O)cc1 [P058, (S)-2-(3-((S)-5-(4-Azidobenzamido)-1-carboxypentyl)ureido)pentanedioic Acid] | – | 100
15 | CN(C(=O)N[C@@H](CCC(=O)O)C(=O)O)[C@@H](CCCCNC(=O)c1ccc(N=[N+]=[N-])cc1)C(=O)O [P059, (S)-2-(3-((S)-5-(4-Azidobenzamido)-1-carboxypentyl)-3-methylureido)pentanedioic Acid] | 0.0125 | 99
16 | O=C(O)CCC(NC(=O)N[C@@H](CCC(=O)O)C(=O)O)C(=O)O (some centres unmarked) [P060] | – | 96
17 | NNC(=O)N[C@@H](CCC(=O)O)C(=O)O [P061, (S)-2-(Hydrazinecarboxamido)pentanedioic Acid] | – | 0
18 | [N-]=[N+]=NCCCC(=O)Nc1ccc(C[C@H](NC(=O)N[C@@H](CCC(=O)O)C(=O)O)C(=O)O)cc1 [P062, (S)-2-(3-((S)-2-(4-(4-Azidobutaneamido)phenyl)-1-carboxyethyl)-ureido)-pentanedioic Acid] | – | 97
19 | CN(C(=O)N[C@@H](CCC(=O)O)C(=O)O)[C@@H](Cc1ccc(NC(=O)CCCN=[N+]=[N-])cc1)C(=O)O [P063, (S)-2-(3-((S)-2-(4-(4-Azidobutaneamido)phenyl)-1-carboxyethyl)-3-methylureido)-pentanedioic Acid] | – | 30
20 | O=C(O)CC[C@@H](C(=O)O)N1C(=O)CC(=O)N([C@@H](CCCCNC(=O)c2ccc(-n3cc(CCCF)nn3)cc2)C(=O)O)C1=O [P064, (S)-2-(3-((S)-1-Carboxy-5-(4-(4-(3-fluoropropyl)-1H-1,2,3-triazol-1-yl)benzamido)pentyl)-2,4,6-trioxotetrahydropyrimidin-1(2H)-yl)pentanedioic Acid] | – | 46
21 | CC(=O)N(CCCCN1C(=O)c2ccccc2C1=O)NC(=O)N[C@@H](CCC(=O)O)C(=O)O [P066, (S)-2-(2-Acetyl-2-(4-(1,3-dioxoisoindolin-2-yl)butyl)hydrazinecarboxamido)-pentanedioic Acid] | – | 12
22 | O=C(O)CC[C@H](NC(=O)N[C@@H](Cc1ccc(NC(=O)CCCCCn2cc(CCCF)nn2)cc1)C(=O)O)C(=O)O [P067, (S)-2-(3-((S)-1-Carboxy-2-(4-(6-(4-(3-fluoropropyl)-1H-1,2,3-triazol-1-yl)hexamido)phenyl)ethyl)ureido)pentanedioic Acid] | – | 52
23 | CN(C(=O)N[C@@H](CCC(=O)O)C(=O)O)[C@@H](Cc1ccc(NC(=O)CCCCCn2cc(CCCF)nn2)cc1)C(=O)O [P068] | – | 27
24 | O=C(O)CC[C@H](NC(=O)N(O)C(CCCCNC(=O)OCc1ccccc1)C(=O)O)C(=O)O (stereo partly drawn) [P069, (13S)-10-Hydroxy-3,11-dioxo-1-phenyl-2-oxa-4,10,12-triazapentadecane-9,13,15-tricarboxylic Acid] | 0.25 | 94
25 | O=C(O)CC[C@H](NC(=S)NC(CCCCNC(=O)OCc1ccccc1)C(=O)O)C(=O)O (stereo partly drawn) [P070, (13S)-3-Oxo-1-phenyl-11-thioxo-2-oxa-4,10,12-triazapentadecane-9,13,15-tricarboxylic Acid] | 0.059 | 94
26 | O=C(O)CC[C@H](NC(=S)N(O)C(CCCCNC(=O)OCc1ccccc1)C(=O)O)C(=O)O (stereo partly drawn) [P071, (13S)-10-Hydroxy-3-oxo-1-phenyl-11-thioxo-2-oxa-4,10,12-triazapentadecane-9,13,15-tricarboxylic Acid] | 0.031 | 96
